Test results from paper PMC8219695 (Nature Communications, 2021).
Values joined by “and” are separate entries in the source; they are usually repeats but may differ in a detail not shown here. Identical values can stand only once.

Experiments:
mMOR [1] = target: T1, mMOR (Mus musculus, UniProt P42866); test: CAMYEL BRET antagonism assay at mMOR (inhibition of DAMGO); assay type: cell-based; settings: source data of Fig 8a and Table 5, listed as C11-Br-7OH (24);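 further: BRET signal rises as cAMP falls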
T1 construct: signal peptide (heterologous, not specified) (N); expressed in transfected cells; pcDNA3.1(+) construct made in house

mMOR [2] = target: T1, mMOR; test: CAMYEL BRET cAMP agonist assay at mMOR; assay type: cell-based; settings: mMOR; for cAMP %: single replicates, source data Fig 6b, listed as C11-Br-7OH (24)
mDOR [3] = target: T2, mDOR (Mus musculus, UniProt P32300); test: CAMYEL BRET cAMP agonist assay at mDOR; assay type: cell-based; settings: for Agonist activity of 7OH analogs at mDOR: single replicate values, Supplementary Figure 7B
T2 construct: expressed in transfected cells

mDOR [4] = target: T2, mDOR; test: [125I]BNtxA radioligand competition binding, mouse DOR; settings: mean ± SEM, n = 3; [125I]BNtxA; read-out: Ki ± SEM mDOR
mKOR = target: T3, mKOR (Mus musculus, UniProt P33534); test: [125I]BNtxA radioligand competition binding, mouse KOR; settings: mean ± SEM, n = 3; [125I]BNtxA; read-out: Ki ± SEM mKOR
T3 construct: expressed in transfected cells; membranes

mMOR [5] = target: T1, mMOR; test: [125I]BNtxA radioligand competition binding, mouse MOR; settings: mean ± SEM, n = 3; [125I]BNtxA; read-out: Ki ± SEM mMOR
hKOR = hKOR (Homo sapiens, UniProt P41145); test: CAMYEL BRET cAMP agonist assay at hKOR; assay type: cell-based; settings: individual replicates, Supplementary Figure 8A source data

CC[C@@H]1CN2CC[C@@]3(O)C(=Nc4cc(Br)cc(OC)c43)[C@@H]2C[C@@H]1/C(=C\OC)C(=O)OC [11-Br-7OH (24), 11-Br-7OH]
Antagonist activity at mMOR, raw signal (single replicate values) (mMOR [1]; Log[drug] (M) -8): 0.2079 and 0.2137 and 0.206 and 0.2077 and 0.2162 and 0.1891 and 0.1751 and 0.1625 and 0.1706 | Antagonist activity at mMOR, raw signal (single replicate values) (mMOR [1]; Log[drug] (M) -9): 0.1949 and 0.206 and 0.225 and 0.1941 and 0.2008 and 0.2159 and 0.1687 and 0.1594 and 0.1786 | Antagonist activity at mMOR, raw signal (single replicate values) (mMOR [1]; Log[drug] (M) -10): 0.1894 and 0.2034 and 0.2214 and 0.2024 and 0.209 and 0.1982 and 0.1754 and 0.1654 and 0.1797 | Antagonist activity at mMOR, raw signal (single replicate values) (mMOR [1]; Log[drug] (M) -11): 0.2409 and 0.2089 (2×) and 0.2025 and 0.1938 and 0.2023 and 0.1798 and 0.1667 and 0.1739 | cAMP % (mMOR [2]; Log[drug] (M) -5): 9.013% and 6.73% and 3.065% and 5.631% and 1.057% and 0.04315% and 7.004% and 14.1806% and 4.634% | cAMP % (mMOR [2]; Log[drug] (M) -6): 5.8044% and 1.851% and 7.958% and 11.2571% and 3.589% and -1.762% and 6.0175% and 2.324% and 0.676% | cAMP % (mMOR [2]; Log[drug] (M) -7): -3.894% and -5.88% and 9.775% and 0.4502% and 1.258% and -1.708% and 1.616% and 1.4183% and 0.1827% | cAMP % (mMOR [2]; Log[drug] (M) -8): 1.549% and 0.05958% and 0.01199% and -1.248% and 2.618% and 1.046% and 3.634% and 0.478% and 3.5882% | cAMP % (mMOR [2]; Log[drug] (M) -9): 13.8914% and 20.7075% and 0.6937% and 7.1213% and -0.7937% and 5.232% and 4.985% and -2.644% and 5.425% | cAMP % (mMOR [2]; Log[drug] (M) -10): 10.1801% and 15.9014% and 8.011% and 8.742% and 7.948% and 6.092% and 2.318% and -3.2024% and 3.127% | cAMP % (mMOR [2]; Log[drug] (M) -11): 14.2135% and 8.364% and 1.552% and 8.664% and 7.808% and 10.8013% and 0.4413% and -1.089% and 0.6474% | cAMP % (mMOR [2]; Log[drug] (M) -13, cAMP inhibition as % of DAMGO): 6.348% and 21.1377% and 5.87% and 7.068% and 6.954% and 15.1455% and 5.75% and 5.389% and 3.7452% | Emax (mMOR [2]; maximal inhibitory effect on cAMP levels relative to DAMGO): < 10% | Agonist activity of 7OH analogs at mDOR (mDOR [3]; Log[drug] (M) -5): 13.8013 and 18.9976 and 33.2307 and 22.3286 and 13.395 and 16.9068 and 13.8361 and 11.2191 and 18.2655 | Agonist activity of 7OH analogs at mDOR (mDOR [3]; Log[drug] (M) -6): 28.5316 and 7.81 and 20.2665 and 20.4093 and 17.1261 and 17.3487 and 14.4976 and 7.195 and 12.5927 | Agonist activity of 7OH analogs at mDOR (mDOR [3]; Log[drug] (M) -7): 11.1893 and 13.4547 and 27.5656 and 14.54 and 12.7942 and 5.698 and 4.253 and 2.065 and 7.661 | Agonist activity of 7OH analogs at mDOR (mDOR [3]; Log[drug] (M) -8): 10.5957 and 18.0747 and 9.651 and 4.935 and -3.078 and 4.75 and 6.109 and 1.285 and 9.808 | Agonist activity of 7OH analogs at mDOR (mDOR [3]; Log[drug] (M) -9): 17.3278 and 15.5005 and 47.145 and -2.094 and 7.434 and -5.339 and 5.642 and -1.53 and 3.1 | Agonist activity of 7OH analogs at mDOR (mDOR [3]; Log[drug] (M) -10): 8.93 and 5.939 and 6.52 and 4.461 and 5.129 and -1.733 and 2.478 and 3.975 and -1.971 | Agonist activity of 7OH analogs at mDOR (mDOR [3]; Log[drug] (M) -11): 10.869 and 6.17 and -5.4274 and 13.8383 and 9.771 and 11.6667 and 2.792 and -1.117 and -1.6751 | Agonist activity of 7OH analogs at mDOR (mDOR [3]; Log[drug] (M) -13): -4.49 and 2.526 and 1.964 and 13.4101 and 7.388 and 17.2326 and -5.081 and 4.508 and 13.385 | Emax (mDOR [3]; mDOR cAMP BRET, positive control DPDPE): very low efficacy | Ki (mDOR [4]): 57.7 ± 6.7 nM | Ki (mKOR): 81.1 ± 7.1 nM | Ki (mMOR [5]): 32.4 ± 1.4 nM | Agonist activity of 7OH analogs at hKOR (hKOR; Log [drug](M) -5): 10.9149 and -7.215 and 4.286 and 11.8421 and 11.499 and 10.9733 and -4.579 and 2.634 and 3.416 | Agonist activity of 7OH analogs at hKOR (hKOR; Log [drug](M) -6): 3.035 and -0.7724 and -13.4731 and 3.219 and -0.695 and 8.186 and -5.571 and -3.171 and 0.4347 | Agonist activity of 7OH analogs at hKOR (hKOR; Log [drug](M) -7): -0.1722 and -16.4342 and -16.1746 and -2.26 and -3.79 and -3.25 and 0.1411 and 2.3 and 5.19 | Agonist activity of 7OH analogs at hKOR (hKOR; Log [drug](M) -8): 22.3379 and -4.57 and 1.209 and 8.576 and -8.308 and -4.317 and 11.4126 and 9.041 and 4.453 | Agonist activity of 7OH analogs at hKOR (hKOR; Log [drug](M) -9): 2.393 and 14.1276 and 3.431 and 19.0489 and 8.55 and -5.559 and -3.604 and -6.454 and -4.21 | Agonist activity of 7OH analogs at hKOR (hKOR; Log [drug](M) -10): -9.31 and -5.502 and 19.956 and 11.266 and -0.5812 and -7.816 and -4.981 and -0.9266 and -11.4459 | Agonist activity of 7OH analogs at hKOR (hKOR; Log [drug](M) -11): 21.966 and -9.511 and 21.9409 and -12.3295 and 2.605 and 7.521 and 2.85 and -2.233 and 3.089 | Agonist activity of 7OH analogs at hKOR (hKOR; Log [drug](M) -13): -3.621 and -4.92 and 8.541 and 7.349 and -4.448 and -2.901 and 2.036 and -3.052 and 1.015
